Tested on: LEFCH (Leptochloa chinensis, Chinese sprangletop)
Test: Postemergence foliar-applied mixtures, direct seeded rice, greenhouse
Format: in vivo, Leptochloa chinensis (L.) Nees
Conditions: 22 DAA
Text: Seeds or nutlets of the desired test plant species were planted in a soil matrix prepared by mixing a loam or sandy loam soil (e.g., 28.6 percent silt, 18.8 percent clay, and 52.6 percent sand, with a pH of about 5.8 and an organic matter content of about 1.8 percent) and calcareous grit in an 80 to 20 ratio. The soil matrix was contained in plastic pots with a volume of 1 quart and a surface area of 83.6 square centimeters (cm^2). When required to ensure good germination and healthy plants, a fungicide treatment and/or other chemical or physical treatment was applied. The plants were grown for 8-22 days in a greenhouse with an approximate 14 h photoperiod which was maintained at about 29° C. during the day and 26° C. during the night. Nutrients (Peters Excel® 15-5-15 5-Ca 2-Mg and iron chelate) were applied in the irrigation solution as needed and water was added on a regular basis. Supplemental lighting was provided with overhead metal halide 1000-Watt lamps as necessary. The plants were employed for testing when they reached the first through fourth true leaf stage. […]
Treatment requirements were calculated based upon the rates being tested, the concentration of active ingredient or acid equivalent in the formulation, and a 12 mL application volume at a rate of 187 L/ha.
For treatments comprised of formulated compounds, measured amounts of compounds were placed individually in 25 mL glass vials and diluted in a volume of 1.25% (v/v) Agri-Dex® crop oil concentrated to obtain 12× stock solutions. […]
For treatments comprised of formulated and technical compounds, weighed amounts of the technical materials were placed individually in 25 mL glass vials and dissolved in a volume of 97:3 v/v acetone/DMSO to obtain 12× stock solutions, and measured amounts of the formulated compounds were placed individually in 25 mL glass vials and diluted in a volume of 1.5% (v/v) crop oil concentrate or water to obtain 12× stock solutions. […]

In the case of COc1c(Cl)ccc(-c2nc(C(=O)OCc3ccccc3)c(Cl)c(N)c2F)c1F [Compound A Benzyl Ester, benzyl ester of 4-amino-3-chloro-5-fluoro-6-(4-chloro-2-fluoro-3-methoxy-phenyl)pyridine-2-carboxylic acid], the “Visual Weed Control (%) Obs” value (8 g ae/ha) is reported as 35% and the “Visual Weed Control (%) Obs” value (16 g ae/ha) is reported as 40%.

Source: patent US8912121B2, “Herbicidal compositions comprising 4-amino-3-chloro-5-fluoro-6-(4-chloro-2-fluoro-3-methoxyphenyl)pyridine-2-carboxylic acid or a derivative thereof and certain PS II inhibitors” (Dow Agrosciences LLC, priority 2012, dated 2014)
